Here are results for 85 molecules from a melting point compilation (Tetko et al.; mined from patent text by program, amines drawn as free bases though some values may be those of a salt).

Some results are limits rather than exact numbers.

Turning to `CCOC(=O)c1ccc(-c2csc(-c3ccc(C(F)(F)F)cc3)n2)cc1`, the melting point (as a rule, the temperature, or range, at which the solid turns liquid) was 163 to 164 °C.
Turning to `COC1Nc2c(ccc(C)c2O)C(=O)N2CCCC12` (stereo not given), the melting point lay within 152 to 156 °C.
Take `CCOC(=O)C1=C(C)NC(C=O)=C(C(=O)OCC)C1c1ccccc1OC` (stereo not given): the melting point lay in the range of 111 to 112 °C.
The value for `C=C(C)COc1ccc(Br)cc1CN(CC)c1ccc(-c2nnco2)nn1` was 90 to 92 °C.
The value for `COc1ccc(S(N)(=O)=O)cc1C(=O)C(C)N=[N+]=[N-]` (stereo not given) was 113 to 114 °C.
The molecule `Nc1nc(-c2nn(Cc3ccccc3F)c3ncccc23)nc(N)c1Cc1ccccc1` yielded a melting point of 193 °C.
Molecule `O=C1NC(=O)[C@@]2(C[C@@H](C(=O)NCCN3CCN(CC=Cc4ccccc4)CC3)Oc3ccc(F)cc32)N1` registered a melting point of 133 to 135 °C.
The value for `CCOCCOc1ccc(CCNC(=O)c2ccccc2CC(=O)OCC)cc1` was 108 °C; that for `Cn1c(COc2ccc(CC3SC(=O)NC3=O)cc2)nc2ccc(Oc3ccc(NC(=S)Nc4ccccc4)cc3)cc21` (stereo not given) was 130 to 131 °C.
The value for `COCCOc1ccc(/C=C/COC(=O)NS(=O)(=O)NCCc2ccccc2)c(Oc2ncc(C(F)(F)F)cc2Cl)c1` was 113 to 114 °C; that for `COc1ccc(S(=O)(=O)C(C)(Cc2ccc(OCCN3CCCCCC3)cc2)C(=O)NO)cc1` (stereo not given) was 68 °C.
`COC(=O)c1ccccc1S(=O)(=O)NC(=O)Nc1nc(Cl)cn(C)c1=O` gave a melting point of 213 to 214 °C.
`CCNC(=Nc1ccccc1N1CCOCC1)NCC` registered a melting point of 101 to 102 °C.
`O=C(OCC1OC(n2ccc(=O)[nH]c2=O)C(OC(=O)c2ccccc2)C1OC(=O)c1ccccc1)c1ccccc1` (stereo not given) yielded a melting point of 143 to 144 °C.
The value for `COc1ccc(S(=O)(=O)C(CCc2ccccc2)CC(=O)O)cc1OC` (stereo not given) was 161 to 162 °C; that for `O=C1Nc2cc(F)ccc2C1c1ncnc2c1cnn2C1CCCCC1` (stereo not given) was 277 to 280 °C.
The value for `Cc1cc(Br)cnc1CCCCNc1ncc(Cc2ccn(C)c(=O)c2)c(=O)[nH]1` was 203 to 204 °C.
In the case of `COc1cc(C(C)=NNC(=N)NCc2ccccc2)cc(OC)c1OC`, the melting point fell in the range of 107 to 109 °C.
The value for `O=C(CC(NC(=O)C(F)(F)F)C(=O)O)c1ccc2c(c1)CCO2` (stereo not given) was 160 to 162 °C; that for `NS(=O)(=O)Nc1ccc(CCN2CCC(COC(c3ccccc3)c3ccccc3)CC2)cc1` was 172 to 174 °C.
Consider `CCOc1ccc(-n2c(-c3ccc(SC)cc3)nc(SC)c(C#N)c2=O)cc1`, for which the melting point lay within 209 to 213 °C.
The value for `O=S(=O)(CC(F)(F)F)c1nc2cc(Cl)ccc2[nH]1` was 161 to 164 °C; that for `CC(=O)Oc1ccc(C(=O)Nc2ccc3ccc(Cl)nc3n2)cc1` was 220 °C; that for `Cc1c(C)c(-c2cccc(CO)c2)c(C)c(C)c1OCCCS(C)(=O)=O` was 132 to 134 °C.
Consider `COc1ccc(N2CCN(CCn3c(=NC(=O)C(F)(F)F)sc4cc(C(F)(F)F)ccc43)CC2)cc1`, for which the melting point stood at 120 °C.
Regarding `CCOC(=O)[C@H](Cc1ccc(OC)cc1)NC(=O)C1(NC(=O)OC(C)(C)C)CCCC1`, the melting point lay within 143 to 146 °C.
The value for `Cc1cc(C)n(C(=O)c2cn3c(C)csc3n2)n1` was 172 to 176 °C.
In turn, `CCOC(=O)C(=CNc1ccn(-c2ccccc2)n1)C(=O)OCC` displayed a melting point of 81 to 82 °C.
On to `O=c1c2c(n(-c3ccccc3)c3ccccc13)OCC2`, for which the melting point fell in the range of 220 to 221 °C.
As for `C[C@@H](C(=O)O)N(C)C(=O)CCSSc1ccc([N+](=O)[O-])cc1`, the melting point lay in the range of 74 to 77 °C.
The value for `CC1(C)C(=O)Nc2cc3[nH]c(O)nc3cc21` was above 300 °C; that for `O=C(Nc1cccc2c1C(=O)c1c-2n[nH]c1C1CCN(C(=O)c2cccs2)CC1)NN1CCOCC1` was 218 to 220 °C; that for `CN1C(=O)Cc2cccc(Cl)c21` was 111 to 113 °C.
The value for `CCOC(=O)Nc1cccc(CBr)c1C(=O)OCC` was 70 to 72 °C; that for `O=C1c2ccc(Cl)cc2C(=O)N1C1CCN(CCc2c[nH]c3ccccc23)CC1` was 188 to 190 °C.
The value for `Cc1oc2ccccc2c1C(=O)N(Cc1ccccc1)Cc1ccc2c(Br)c(OCC#N)ccc2c1` was 145 to 146 °C; that for `CC(C)(COc1ccc(Cl)cc1)C(=O)C(Oc1ccc(Cl)cc1)n1cncn1` (stereo not given) was 206 to 208 °C.
`Cc1cc(-n2ccnc2)c2cccc(OCc3c(Cl)ccc(S(=O)(=O)N4CSC[C@H]4C(=O)O)c3Cl)c2n1` yielded a melting point of 130 °C.
The value for `CCOC(=O)c1cc2cc([Si](C)(C)C)ccc2n1Cc1cccc(F)c1` was 80 to 82 °C; that for `CCCCOCCOc1ccc(-c2ccc3c(c2)C=C(C(=O)Nc2ccc(CC(=O)c4nccn4CCC)cc2)CCN3CC(C)C)cc1` was 136 to 138 °C; that for `CCOC(=O)/C=C/c1ccc(C=Cc2nc(-c3ccc4ccccc4c3)oc2C)cc1` was 186 to 187 °C.
The value for `O=C(COc1ccc(Cl)c2c(=O)c3ccccc3sc12)c1ccccc1` was 174 to 176 °C; that for `Cc1cc2nccn2nc1OCC(C)(C)CCS(N)(=O)=O` was 161 to 162 °C; that for `CCCCc1nn(-c2cc(NC(=O)CC)ccc2Br)c(=O)n1Cc1ccc(-c2ccccc2S(=O)(=O)NC(=O)OC(C)(C)C)cc1F` was 123 to 126 °C.
Regarding `O=c1[nH]c2ccc(F)cc2c(=O)n1-c1ccc(Cl)cc1Cl`, the melting point was 313 to 314 °C.
The value for `CC(C)(C)OC(=O)NC1CCN(CCn2c(=O)ccc3ccc(C#N)cc32)CC1` was 202 °C.
The value for `CCc1ccc2c(c1)c(-c1ccccc1Cl)c(NC(=O)Nc1ccc(F)cc1F)c(=O)n2C` was 192 to 195 °C; that for `CCOP(=O)(Cc1ccc2cc(CP(=O)(OCC)OCC)ccc2c1)OCC` was 151 to 153 °C; that for `O=C(O)C(Sc1nc2c(s1)CCCC2)c1ccccc1` (stereo not given) was 118 to 120 °C.
Molecule `CCc1cccc(CC)c1-n1c(C(=O)O)cnc1SCc1ccccc1` had a melting point of 152 to 154 °C.
Take `N=C(N)NC[C@H]1CC[C@H](C(=O)O)CC1`: the melting point is 206 to 208 °C.
The value for `COc1cccc(CC(=O)O)c1OCCCc1cn(-c2ccc(NC(C)=O)cn2)nc1C(C)C` was 158 to 159 °C.
The value for `CC(C)(C)c1cc(CCc2ccccc2NC(=O)N2CCc3ccccc3C2)cc(C(C)(C)C)c1O` was 148 to 150 °C; that for `CC(C)(C)OC(=O)NCc1ccccc1Br` was 51 to 53 °C; that for `O=C(O)c1ccc(=O)n(CCNC(=O)c2ccccn2)c1` was 266 to 268 °C.
The value for `CN(C)n1cc(C(=O)NCc2ccc(Cl)cc2)c(=O)c2cc(C#CCO)ccc21` was 210 to 214 °C; that for `CN(C)C(=O)c1ccncc1-c1nc(-c2ccc(Cl)cc2)cs1` was 195 °C.
`O=C(Nc1ccc(N2CCOCC2=O)cc1)[C@H]1CCCN1C(=O)c1ccc(Cl)s1` registered a melting point of 195 °C.
Molecule `O=C1c2c(Cl)cc(Cl)c(Cl)c2C(=O)N1c1ccccc1` showed a melting point of 199 to 200 °C.
The value for `CCCc1c(Br)c2ccc(C(N)=O)cc2n1Cc1ccccc1Br` was 122 to 125 °C; that for `CCOC(=O)C1=C(C)NC(C)=C(C(=O)OCC)C1c1ccccc1C=Cc1ccc(Cl)cc1` was 178 to 181 °C; that for `O=CN1C2CCC1CC(Oc1ccc(Cl)cn1)C2` (stereo not given) was 112 to 114 °C.
The value for `CCOc1ccc(NC(=O)OC(C)(C)C)c(C)c1` was 55 to 56 °C; that for `COc1cc(C(=O)NS(=O)(=O)c2ccccc2Cl)ccc1Cc1cn(C)c2ccc(CC(C)NC(=O)N(C)C)cc12` (stereo not given) was 131 to 136 °C.
Molecule `CCOc1ccc2c(c1)C(Cl)(c1ccccc1Cl)C(=O)N2` (stereo not given) had a melting point of 128 to 132 °C.
`CCC1(CC(=O)O)OCCc2c1[nH]c1c(C(C)C)cccc21` (stereo not given): the melting point was in the range of 158 to 159 °C.
The value for `COC(=O)c1cscc1NC(=O)COc1ccc(Cl)c(Cl)c1` was 179 to 182 °C; that for `CCCCCCCCC1C=CC(Oc2ccc(C(=O)O)o2)=C2N=C3CCCC(C)(C)C3=C21` (stereo not given) was 118 to 120 °C.
In turn, `COc1ccc(CS(=O)(=O)c2cc3cc(Cl)ccc3oc2=O)cc1` displayed a melting point of 224 to 226 °C.
The value for `CCOCC1Cc2cc(S(=O)(=O)N(C)C)c(Cl)c(Cl)c2O1` (stereo not given) was 91 to 92 °C; that for `O=C1c2ccc(NC(=O)C3CCCCC3)cc2C(=O)c2cc(NC(=O)C3CCCCC3)ccc21` was 269 °C; that for `COc1cc(OCCCCl)ccc1C(C)=O` was 47 to 49 °C.
Take `CC(=O)OCCCn1c(NC(=O)c2cccs2)nc2cc(C(=O)N(C)C3CCCCC3)ccc21`: the melting point lay in the range of 74 to 76 °C.
Turning to `O=C(O)c1ccc(OC(F)(F)F)c([N+](=O)[O-])c1`, the melting point lay within 137 to 139 °C.
In the case of `CC/C(=C(\c1ccc(I)cc1)c1ccc(OCCCCCBr)cc1)c1ccccc1`, the melting point was 78 to 80 °C.
The value for `CCOC(=O)C=CC=CCCC(C)C1CCC2C3CCC4CC(OC(C)=O)CCC4(C)C3CC(OC(C)=O)C12C` (stereo not given) was 129 to 131 °C.
`CCCc1c(OCCCOc2ccc(C(=O)CCC(=O)O)cc2F)ccc(C(C)=O)c1O` showed a melting point of 142 to 144 °C.
The value for `COC(=O)c1ccc2nc(C(F)(F)F)c(S(C)(=O)=O)nc2c1` was 143 to 144 °C; that for `O=C(CCNc1c(C(=O)O)[nH]c2cc(Cl)cc(Cl)c12)c1cccc(F)c1` was 270 to 280 °C; that for `Clc1cccc(C2CCN(CCCCOc3ccc4scnc4c3)CC2)c1Cl` was 79 to 81 °C.
In turn, `CC(=O)NC[C@H]1CN(c2ccc(N3CCC(C#N)(NNC(=O)c4cccs4)CC3)c(F)c2)C(=O)O1` came in with a melting point of 226 to 230 °C.
As for `Fc1ccccc1-c1cc2ccccc2[nH]1`, the melting point fell in the range of 97 to 98 °C.
As to `CC(C)(CO)C(=O)N(O)Cc1ccccc1Cl`, the melting point lay within 130 to 132 °C.
In turn, `CC(C(=O)O)c1ccc(-c2ccc(Br)cc2F)cc1` (stereo not given) showed a melting point of 137 to 139 °C.
The value for `O=C(O)C(Oc1ccc(Cl)c(C(F)(F)F)c1)c1ccc(Cl)cc1` (stereo not given) was 132 °C.
